Data on 32 compounds can be found in US12503436B2, “Compounds and compositions for treating conditions associated with STING activity” (NOVARTIS PHARMA AG, priority 2021, dated 2025).

The assay has as its target STING (Homo sapiens, UniProt Q86WV6, G230A/H232R/R293Q/R71H). The assay is described as follows: STING reporter assay in THP1-Dual KO-IFNAR2 cells (2′3′cGAMP stimulation, luciferase reporter). In kind it is cell-based. Particulars: 15 μM 2′3′cGAMP stimulation, 24 h, read-out: Pharmaron, THP1_IFNAR2 STING 24 h Luci Normalized: GeoMean EC50. An outline of the steps:
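EC50 from secreted luciferase (QUANTI-Luc Plus luminescence of supernatant) after 24 h at 37 °C, 5% CO2. Cells: THP1-Dual KO-IFNAR2, treated with compound (0.0017-100 μM final) plus lipofected 2′3′cGAMP at 15 μM final.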
For orientation: A reporter such as luciferase makes a cellular process visible.

Sequence of STING (Q86WV6 whole entry R71H/G230A/H232R/R293Q): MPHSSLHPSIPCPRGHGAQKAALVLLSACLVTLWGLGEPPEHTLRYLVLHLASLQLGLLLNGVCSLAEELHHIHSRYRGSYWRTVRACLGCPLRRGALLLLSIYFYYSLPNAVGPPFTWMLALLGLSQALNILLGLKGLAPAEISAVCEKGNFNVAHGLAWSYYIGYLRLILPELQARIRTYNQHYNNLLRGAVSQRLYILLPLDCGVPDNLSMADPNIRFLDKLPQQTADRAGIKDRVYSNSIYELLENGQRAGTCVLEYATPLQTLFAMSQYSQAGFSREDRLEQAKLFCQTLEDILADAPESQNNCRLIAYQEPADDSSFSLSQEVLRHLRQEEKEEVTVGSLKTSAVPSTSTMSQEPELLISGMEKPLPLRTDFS

By EC50 is commonly meant the concentration that produces a half-maximal response. As to `CC1(C(=O)Nc2c[nH]c3ccc(OCCc4ccc(C(F)(F)F)cc4)cc23)CNC1` [Compound 569, 3-methyl-N-(5-(4-(trifluoromethyl)phenethoxy)-1H-indol-3-yl)azetidine-3-carboxamide], the EC50 is 1000 to 5000 nM. As for `CC(=O)Nc1c[nH]c2ccc(OC(C)Cc3ccc(C(F)(F)F)cc3)cc12` (single isomer, unassigned) [Compound 286, N-(5-((1-(4-(trifluoromethyl)phenyl)propan-2-yl)oxy)-1H-indol-3-yl)acetamide], the concentration giving a half-maximal response (EC50) is 1000 to 5000 nM. Take `C[C@]1(C(=O)Nc2c[nH]c3ccc(OCc4ccc(C(F)(F)F)cc4)cc23)C[C@H](CO)C1` [Compound 416, cis-3-(hydroxymethyl)-1-methyl-N-(5-((4-(trifluoromethyl)benzyl)oxy)-1H-indol-3-yl)cyclobutane-1-carboxamide]: the EC50 lay within 200 to 1000 nM. Take `CC1(C(=O)Nc2c[nH]c3ccc(O[C@H]4C[C@H](c5ccc(C(F)(F)F)cc5)C4)cc23)CCCO1` (stereo partly drawn) [Compound 487, 2-methyl-N-{5-[(1R,3R)-3-[4-(trifluoromethyl)phenyl]cyclobutoxy]-1H-indol-3-yl}oxolane-2-carboxamide]: the 50% effective concentration (EC50) was 40 to 200 nM. For `CN1CC(C(=O)Nc2c[nH]c3ccc(CCOc4ccc(C(F)(F)F)cc4)cc23)C1` [Compound 590, 1-methyl-N-(5-(2-(4-(trifluoromethyl)phenoxy)ethyl)-1H-indol-3-yl)azetidine-3-carboxamide] the value was 1000 to 5000 nM; for `CC(=O)Nc1c[nH]c2ccc(CCNc3ccc(C(F)(F)F)nc3)cc12` [Compound 126, N-(5-(2-((6-(trifluoromethyl)pyridin-3-yl)amino)ethyl)-1H-indol-3-yl)acetamide], 1000 to 5000 nM; for `O=C(Nc1c[nH]c2ccc(COCc3ccc(C(F)(F)F)cc3)cc12)C1CCC1` [Compound 109, N-(5-(((4-(trifluoromethyl)benzyl)oxy)methyl)-1H-indol-3-yl)cyclobutanecarboxamide], 40 to 200 nM. As for `CC(C)(C)OC(=O)N1CC(C)(C(=O)Nc2c[nH]c3ccc(O[C@H]4C[C@H](c5ccc(C(F)(F)F)cc5)C4)cc23)C1` [Compound 568, tert-butyl 3-methyl-3-((5-(trans-3-(4-(trifluoromethyl)phenyl)cyclobutoxy)-1H-indol-3-yl)carbamoyl)azetidine-1-carboxylate], the half-maximal effective concentration (EC50) is 200 to 1000 nM. With `O=C(Nc1c[nH]c2ccc(OCC[C@@H]3C[C@@H]4CN(CC(F)(F)F)C[C@@H]4C3)cc12)C1CC1(F)Cl` (stereo partly drawn) [Compound 577, 2-chloro-2-fluoro-N-(5-(2-((3aR,5r,6aS)-2-(2,2,2-trifluoroethyl)octahydrocyclopenta[c]pyrrol-5-yl)ethoxy)-1H-indol-3-yl)cyclopropane-1-carboxamide], the EC50 lay in the range of 200 to 1000 nM.

As for `N#C[C@@H]1C[C@@H]1C(=O)Nc1c[nH]c2ccc(OCCc3ccc(C(F)(F)F)cc3)cc12` [Compound 188, (1S,2R)-2-cyano-N-(5-(4-(trifluoromethyl)phenethoxy)-1H-indol-3-yl)cyclopropane-1-carboxamide], the half-maximal effective concentration (EC50) was 200 to 1000 nM.

On to `CC(=O)Nc1c[nH]c2ccc(OC3CCc4cc(C(F)(F)F)ccc4C3)cc12` (centres unmarked) [Compound 436, N-(5-((6-(trifluoromethyl)-1,2,3,4-tetrahydronaphthalen-2-yl)oxy)-1H-indol-3-yl)acetamide], for which the concentration for a half-maximal effect (EC50) fell in the range of 40 to 200 nM. For `O=C(Nc1c[nH]c2ccc(OCCc3ccc(C(F)(F)F)cc3)cc12)C1CC1(F)F` (centres unmarked) [Compound 181, 2,2-difluoro-N-(5-(4-(trifluoromethyl)phenethoxy)-1H-indol-3-yl)cyclopropane-1-carboxamide] the value was 200 to 1000 nM. Regarding `CC(=O)Nc1c[nH]c2ccc(OCCc3cnc(N4CCN(CC(F)(F)F)CC4)c(F)c3)cc12` [Compound 253, N-(5-(2-(5-fluoro-6-(4-(2,2,2-trifluoroethyl)piperazin-1-yl)pyridin-3-yl)ethoxy)-1H-indol-3-yl)acetamide], the concentration giving a half-maximal response (EC50) was in the range of 1000 to 5000 nM. Then `CC(=O)Nc1c[nH]c2ccc(CC(Cc3ccc(C(F)(F)F)cc3)C(=O)O)cc12` (centres unmarked) [Compound 532, 3-(3-acetamido-1H-indol-5-yl)-2-(4-(trifluoromethyl)benzyl)propanoic acid], with 5000 to 100000 nM; and `COCC(=O)Nc1c[nH]c2ccc(O[C@H]3C[C@H](c4ccc(C(F)(F)F)cc4)C3)cc12` [Compound 258, 2-methoxy-N-(5-(trans-3-(4-(trifluoromethyl)phenyl)cyclobutoxy)-1H-indol-3-yl)acetamide], with 40 to 200 nM; and `O=C(Nc1c[nH]c2ccc(OCC[C@@H]3C[C@@H]4CN(CC(F)(F)F)C[C@@H]4C3)cc12)C1CC1(F)F` (stereo partly drawn) [Compound 307, 2,2-difluoro-N-(5-(2-((3aR,5r,6aS)-2-(2,2,2-trifluoroethyl)octahydrocyclopenta[c]pyrrol-5-yl)ethoxy)-1H-indol-3-yl)cyclopropane-1-carboxamide], with 200 to 1000 nM. For the compound “3-(hydroxymethyl)-N-(5-(2-((3aR,5r,6aS)-2-(2,2,2-trifluoroethyl)octahydrocyclopenta[c]pyrrol-5-yl)ethoxy)-1H-indol-3-yl)cyclobutane-1-carboxamide [Compound 343]”, the EC50 lay within 200 to 1000 nM. For `COCC1(C(=O)Nc2c[nH]c3ccc(CCOc4ccc(C(F)(F)F)cc4)cc23)CC1` [Compound 176, 1-(methoxymethyl)-N-(5-{2-[4-(trifluoromethyl)phenoxy]ethyl}-1H-indol-3-yl)cyclopropane-1-carboxamide] the value was 200 to 1000 nM.

For `CC(=O)Nc1c[nH]c2ccc(OCC(F)C3CCN(CC(F)(F)F)CC3)cc12` (centres unmarked) [Compound 105, N-(5-(2-fluoro-2-(1-(2,2,2-trifluoroethyl)piperidin-4-yl)ethoxy)-1H-indol-3-yl)acetamide], the half-maximal effective concentration (EC50) fell in the range of 1000 to 5000 nM. For `C[C@]1(C(=O)Nc2c[nH]c3ccc(O[C@H]4C[C@H](c5ccc(C(F)(F)F)cc5)C4)cc23)CC[C@@H](O)CC1` (single isomer, unassigned) [Compound 426, cis-4-hydroxy-1-methyl-N-(5-(trans-3-(4-(trifluoromethyl)phenyl)cyclobutoxy)-1H-indol-3-yl)cyclohexane-1-carboxamide] the value was 40 to 200 nM; for `CC1(C)CC1C(=O)Nc1c[nH]c2ccc(OCCc3ccc(C(F)(F)F)cc3)cc12` (centres unmarked) [Compound 192, 2,2-dimethyl-N-(5-(4-(trifluoromethyl)phenethoxy)-1H-indol-3-yl)cyclopropane-1-carboxamide], 40 to 200 nM; for `O=C(Nc1c[nH]c2ccc(O[C@H]3C[C@@H](c4ccc(C(F)(F)F)cc4)C3)cc12)C1CN(CC(F)(F)F)C1` [Compound 243, 1-(2,2,2-trifluoroethyl)-N-(5-(cis-3-(4-(trifluoromethyl)phenyl)cyclobutoxy)-1H-indol-3-yl)azetidine-3-carboxamide], 40 to 200 nM.

In the case of `CC1(C)CC(C(=O)Nc2c[nH]c3ccc(OCC[C@@H]4C[C@@H]5CN(CC(F)(F)F)C[C@@H]5C4)cc23)C1` [Compound 346, 3,3-dimethyl-N-(5-(2-((3aR,5r,6aS)-2-(2,2,2-trifluoroethyl)octahydrocyclopenta[c]pyrrol-5-yl)ethoxy)-1H-indol-3-yl)cyclobutane-1-carboxamide], the EC50 was in the range of 200 to 1000 nM. Turning to `O=C(Nc1c[nH]c2ccc(OCC[C@@H]3C[C@@H]4CN(CC(F)(F)F)C[C@@H]4C3)cc12)C1CC(F)C1` (stereo partly drawn) [Compound 589, 3-fluoro-N-(5-(2-((3aR,5r,6aS)-2-(2,2,2-trifluoroethyl)octahydrocyclopenta[c]pyrrol-5-yl)ethoxy)-1H-indol-3-yl)cyclobutane-1-carboxamide], the EC50 lay within 40 to 200 nM. Regarding `CC1(C(=O)Nc2c[nH]c3ccc(CC(O)Cc4ccc(C(F)(F)F)cc4)cc23)CC1` (centres unmarked) [Compound 174, N-(5-(2-hydroxy-3-(4-(trifluoromethyl)phenyl)propyl)-1H-indol-3-yl)-1-methylcyclopropane-1-carboxamide], the half-maximal effective concentration (EC50) fell in the range of 200 to 1000 nM. Consider `CCC(=O)Nc1c[nH]c2ccc(COc3ccc(C)cc3)cc12` [Compound 291, N-(5-((p-tolyloxy)methyl)-1H-indol-3-yl)propionamide], for which the 50% effective concentration (EC50) was in the range of 200 to 1000 nM.

For the compound `O=C(Nc1c[nH]c2ccc(/C=C/Cc3ccc(C(F)(F)F)cc3)cc12)C1CCC1` [Compound 135, (E)-N-(5-(3-(4-(trifluoromethyl)phenyl)prop-1-en-1-yl)-1H-indol-3-yl)cyclobutanecarboxamide], the half-maximal effective concentration (EC50) lay in the range of 200 to 1000 nM.

As for `CC(=O)Nc1c[nH]c2cc(F)c(CCOc3ccc(C(F)(F)F)cc3)cc12` [Compound 223, N-(6-fluoro-5-(2-(4-(trifluoromethyl)phenoxy)ethyl)-1H-indol-3-yl)acetamide], the concentration for a half-maximal effect (EC50) is 40 to 200 nM. Turning to `CC(C)(C)CC(=O)Nc1c[nH]c2ccc(CCOc3ccc(C(F)(F)F)cc3)cc12` [Compound 591, 3,3-dimethyl-N-(5-(2-(4-(trifluoromethyl)phenoxy)ethyl)-1H-indol-3-yl)butanamide], the EC50 is 200 to 1000 nM. For the compound `C[C@H]1C[C@@H]1C(=O)Nc1c[nH]c2ccc(OCCc3ccc(C(F)(F)F)cc3)cc12` [Compound 206, (1S,2S)-2-methyl-N-(5-(4-(trifluoromethyl)phenethoxy)-1H-indol-3-yl)cyclopropane-1-carboxamide], the half-maximal effective concentration (EC50) was 40 to 200 nM. On to `O=C(Nc1c[nH]c2ccc(OCCc3ccc(C(F)(F)F)cc3)cc12)[C@H]1C[C@H](CO)C1` [Compound 534, trans-3-(hydroxymethyl)-N-(5-(4-(trifluoromethyl)phenethoxy)-1H-indol-3-yl)cyclobutane-1-carboxamide], for which the EC50 is 40 to 200 nM. Then `C[C@]1(C(=O)Nc2c[nH]c3ccc(OCc4ccc(C(F)(F)F)cc4)cc23)C[C@@H](O)C1` [Compound 414, cis-3-hydroxy-1-methyl-N-(5-((4-(trifluoromethyl)benzyl)oxy)-1H-indol-3-yl)cyclobutane-1-carboxamide], with 200 to 1000 nM.
